Experimental data as given in the NIST ThermoML archive (doi:10.1021/je800282a).

What was measured:
[1] = wn = mass fraction of the nth substance listed; conditions: for viscosity: 101 kPa, Liquid
[2] = refractive index (Na D-line) (dimensionless); wn = mass fraction of the nth substance listed; conditions: 101 kPa, Liquid
[3] = for viscosity: 101.33 kPa, Liquid
[4] = refractive index (Na D-line) (dimensionless); conditions: 101.33 kPa, Liquid

CN(CCO)CCO [N-methyldiethanolamine] + O
Conditions	refractive index	surface tension liquid-gas [mN/m]	viscosity [mPa·s]
[1], 298.15 K, w1 = 0.3228	–	–	3.48
[1], 298.15 K, w1 = 0.488	–	–	9.25
[1], 303.15 K, w1 = 0.3288	–	53.16	–
[1], 303.15 K, w1 = 0.488	–	47.56	–
[1], 308.15 K, w1 = 0.3228	–	–	2.26
[1], 308.15 K, w1 = 0.488	–	–	6.14
[1], 313.15 K, w1 = 0.3288	–	52.38	–
[1], 313.15 K, w1 = 0.488	–	46.92	–
[1], 318.15 K, w1 = 0.3228	–	–	1.82
[1], 318.15 K, w1 = 0.488	–	–	4.37
[1], 323.15 K, w1 = 0.3288	–	51.42	–
[1], 323.15 K, w1 = 0.488	–	45.58	–
[1], 328.15 K, w1 = 0.3228	–	–	1.34
[1], 328.15 K, w1 = 0.488	–	–	3.46
[1], 333.15 K, w1 = 0.3288	–	50.67	–
[1], 333.15 K, w1 = 0.488	–	44.83	–
[1], 338.15 K, w1 = 0.3228	–	–	1.17
[1], 338.15 K, w1 = 0.488	–	–	2.81
[2], 303.15 K, w1 = 0.3228	1.37748	–	–
[2], 303.15 K, w1 = 0.488	1.40298	–	–
[2], 313.15 K, w1 = 0.3228	1.37604	–	–
[2], 313.15 K, w1 = 0.488	1.39971	–	–
[2], 318.15 K, w1 = 0.3228	1.37467	–	–
[2], 318.15 K, w1 = 0.488	1.39629	–	–
[2], 323.15 K, w1 = 0.3228	1.37305	–	–
[2], 323.15 K, w1 = 0.488	1.39254	–	–
[2], 333.15 K, w1 = 0.3228	1.37134	–	–
[2], 333.15 K, w1 = 0.488	1.38821	–	–

CN(CCO)CCO [N-methyldiethanolamine]
Conditions	refractive index, [4]	surface tension liquid-gas, [3] [mN/m]	viscosity, [3] [mPa·s]
298.15 K	–	–	77.85
303.15 K	1.46532	38.74	–
308.15 K	–	–	43.9
313.15 K	1.46074	37.48	–
318.15 K	1.45892	–	27.44
323.15 K	1.45708	36.82	–
328.15 K	–	–	17.89
333.15 K	1.45287	35.31	–
338.15 K	–	–	12.34
